pKd: −log10 of the molar value.
How the values were obtained:
Protease [1] = target: T1, Protease (Human immunodeficiency virus 1, UniProt Q9YQ12); experiment: Binding affinity to Human immunodeficiency virus 1 protease by SPR biosensor interaction analysis at pH 7.4
Protease [2] = target: T1, Protease; experiment: Binding affinity to Human immunodeficiency virus 1 protease by SPR biosensor interaction analysis at pH 5.1
Protease [3] = target: T1, Protease; experiment: Binding affinity to Human immunodeficiency virus 1 protease by SPR biosensor interaction analysis at pH 4.1

T1 sequence (Q9YQ12 whole entry): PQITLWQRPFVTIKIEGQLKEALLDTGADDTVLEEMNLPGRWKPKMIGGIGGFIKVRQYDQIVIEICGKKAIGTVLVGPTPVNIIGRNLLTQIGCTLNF

Structure (SMILES)	pKd (Protease [1])	pKd (Protease [2])	pKd (Protease [3])
CNC(=O)[C@@H](NC(=O)[C@H](OCc1ccccc1)[C@H](O)[C@@H](O)[C@@H](OCc1ccccc1)C(=O)N[C@H](C(=O)NC)C(C)C)C(C)C	7.97	8.52	8.53
O=C1N(Cc2ccc(CO)cc2)[C@H](COc2ccccc2)[C@H](O)[C@@H](O)[C@@H](COc2ccccc2)N1Cc1ccc(CO)cc1	8.16	8.74	8.74
O=C(N[C@H]1c2ccccc2C[C@H]1O)[C@H](OCc1ccccc1)[C@H](O)[C@@H](O)[C@@H](OCc1ccccc1)C(=O)N[C@H]1c2ccccc2C[C@H]1O	7.86	9.00	8.94
Cc1c(O)cccc1C(=O)N[C@@H](CSc1ccccc1)[C@H](O)CN1C[C@H]2CCCC[C@H]2C[C@H]1C(=O)NC(C)(C)C	8.47	8.52	7.42
CC(=O)N[C@H](C(=O)N[C@H](C(=O)N[C@@H](CC(C)C)[C@@H](O)CC(=O)N[C@@H](C)C(=O)N[C@@H](CC(C)C)[C@@H](O)CC(=O)O)C(C)C)C(C)C [ACETYLPEPSTATIN]	5.09	6.12	6.68

— ChEMBL document CHEMBL2057160, “Experimental and 'in silico' analysis of the effect of pH on HIV-1 protease inhibitor affinity: implications for the charge state of the protein ionogenic groups” (Bioorg Med Chem, 2012)
